Assay results as given in patent US10538555B2, “Macrocyclic inhibitors of the PD-1/PD-L1 and CD80(B7-1)/PD-L1 protein/protein interactions” (BRISTOL-MYERS SQUIBB COMPANY, priority 2014, dated 2020).
*1 amine or outer side, *2 acyl side, *3 side chain or, on linkers, in order; H or OH if unused. Where a SMILES comes first, the peptide text is derived from it. Bridges are numbered along the chain shown (N, C = ends). [ ]: non-standard residue; d: D form. ξ: configuration not given here. X5 = O=C(O)CC[C@H](N[*:1])C(=O)C1C[C@H](O)C[C@H]1C(=O)[*:2]; Trp(βS-Me) = C[C@@H](c1c[nH]c2ccccc12)[C@H](N)C(=O)O; Phe(3,4,5-F3) = N[C@@H](Cc1cc(F)c(F)c(F)c1)C(=O)O; d(cisHyp) = O=C(O)[C@H]1C[C@@H](O)CN1; NMeY = CN[C@@H](Cc1ccc(O)cc1)C(=O)O; Hyp = O=C(O)[C@@H]1C[C@@H](O)CN1; NMeF = CN[C@@H](Cc1ccccc1)C(=O)O; NMeNle = CCCC[C@H](NC)C(=O)O; NMeA = CN[C@@H](C)C(=O)O; Orn = NCCC[C@H](N)C(=O)O; Dab = NCC[C@H](N)C(=O)O; ξC = NC(CS)C(=O)O

Biological target: T1, Human PD-L1/PD-1 (Homo sapiens, UniProt Q9NZQ7)
T1 construct: TVMV protease cleavage site (C); made in house; host or cells: HEK293T cells
T1 sequence (Q9NZQ7 with tags, fused parts or gaps): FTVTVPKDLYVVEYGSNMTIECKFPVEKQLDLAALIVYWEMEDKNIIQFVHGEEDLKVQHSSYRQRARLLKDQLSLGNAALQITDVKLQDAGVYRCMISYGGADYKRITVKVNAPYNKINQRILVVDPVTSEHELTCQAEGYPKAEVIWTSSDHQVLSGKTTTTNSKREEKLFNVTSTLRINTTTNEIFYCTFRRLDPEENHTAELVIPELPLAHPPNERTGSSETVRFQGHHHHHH
Experiment: HTRF Human PD-L1/PD-1 binding assay (PD-1-Ig/PD-L1-His)
Conditions: PD-L1-His 10 nM, PD-1-Ig 20 nM; class symbol; read-out: HTRF Human PD-L1/PD-1 Binding Assay IC50 Range
Procedure, shortened: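 Step 1: compound with PD-L1-His (10 nM final), 15 min. Step 2: PD-1-Ig (20 nM final), 15 min. Step 3: Eu-cryptate anti-Ig (1 nM) plus APC anti-His (20 nM), 30 min equilibration. Signal taken as 665 nm/620 nm ratio.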

Row | IC50 | Compound
1 | 1 to 9.9 nM | CCCC[C@H]1C(=O)N(C)[C@@H](CCCC)C(=O)N[C@@H](CCCNC(=N)N)C(=O)N[C@H](C(=O)NCC(N)=O)CSCC(=O)N[C@@H](Cc2ccc(OC)cc2)C(=O)N(C)[C@@H](C)C(=O)N[C@@H](CC(N)=O)C(=O)N2CCC[C@H]2C(=O)N[C@@H](Cc2cnc[nH]2)C(=O)N[C@@H](CCC(=O)O)C(=O)N2C[C@H](O)C[C@H]2C(=O)N[C@@H](Cc2c[nH]c3ccccc23)C(=O)N[C@@H](CO)C(=O)N[C@@H](Cc2c[nH]c3ccccc23)C(=O)N1C [Example 7086] ({CH2CO}-Y(Me)[NMeA]NPHE[Hyp]WSW[NMeNle][NMeNle]RCG-NH2; thioether N-14)
2 | 1 to 9.9 nM | CCCC[C@H]1C(=O)N(C)[C@@H](CCCC)C(=O)N[C@@H](CCCN)C(=O)N[C@H](C(=O)NCC(N)=O)CSCC(=O)N[C@@H](Cc2ccc(OC)cc2)C(=O)N(C)[C@@H](C)C(=O)N[C@@H](CC(N)=O)C(=O)N2CCC[C@H]2C(=O)N[C@@H](Cc2cnc[nH]2)C(=O)N[C@@H](CCC(=O)O)C(=O)C2C[C@H](O)C[C@H]2C(=O)N[C@@H](Cc2c[nH]c3ccccc23)C(=O)N[C@@H](CCN)C(=O)N[C@@H](Cc2c[nH]c3ccccc23)C(=O)N1C (stereo partly drawn) [Example 7087] ({CH2CO}-Y(Me)[NMeA]NPH[X5]W[Dab]W[NMeNle][NMeNle][Orn]CG-NH2; thioether N-13)
3 | 1 to 9.9 nM | CCCC[C@H]1C(=O)N2CCC[C@@H]2C(=O)N[C@@H](CC(=O)O)C(=O)N[C@@H](C(C)C)C(=O)N(C)[C@@H](Cc2ccccc2)C(=O)N[C@@H](CCC(=O)O)C(=O)N2C[C@H](O)C[C@@H]2C(=O)N[C@@H](Cc2c[nH]c3ccccc23)C(=O)N[C@@H](Cc2ccc(O)cc2)C(=O)N[C@@H](CCCN)C(=O)N[C@H](C(=O)NCC(N)=O)CSCC(=O)N[C@@H](Cc2cc(F)c(F)c(F)c2)C(=O)N(C)[C@@H](Cc2ccc(O)cc2)C(=O)N1C [Example 10632] ({CH2CO}-[Phe(3,4,5-F3)][NMeY][NMeNle][dP]DV[NMeF]E[d(cisHyp)]WY[Orn]CG-NH2; thioether N-13)
4 | 1 to 9.9 nM | CCCC[C@H]1C(=O)N(C)[C@@H](CCCC)C(=O)N[C@@H](CCCNC(=N)N)C(=O)N[C@H](C(=O)NCC(N)=O)CSCC(=O)N[C@@H](Cc2ccc(O)cc2)C(=O)N(C)[C@@H](C)C(=O)N[C@@H](CC(=O)O)C(=O)N2CCC[C@H]2C(=O)N[C@@H](Cc2c[nH]cn2)C(=O)N[C@@H](CC(C)C)C(=O)N2C[C@H](O)C[C@H]2C(=O)N[C@@H](Cc2c[nH]c3ccccc23)C(=O)N[C@@H](CCCCN)C(=O)N[C@@H](Cc2c[nH]c3ccccc23)C(=O)N1C [Example 11003] ({CH2CO}-Y[NMeA]DPHL[Hyp]WKW[NMeNle][NMeNle]RCG-NH2; thioether N-14)
5 | 1000 to 10000 nM | CCCC[C@H]1C(=O)N[C@@H](CC(=O)O)C(=O)N2CCC[C@H]2C(=O)N[C@@H](Cc2c[nH]cn2)C(=O)N[C@@H](CCC(N)=O)C(=O)N2C[C@H](O)C[C@H]2C(=O)N[C@@H]([C@@H](C)c2c[nH]c3ccccc23)C(=O)N[C@@H](CO)C(=O)N[C@@H](Cc2c[nH]c3ccccc23)C(=O)N(C)[C@@H](C)C(=O)N(C)[C@@H](C)C(=O)N[C@@H](C)C(=O)N[C@H](C(=O)NCC(N)=O)CSCC(=O)N[C@@H](Cc2ccc(O)cc2)C(=O)N1C [Example 10539] ({CH2CO}-Y[NMeNle]DPHQ[Hyp][Trp(βS-Me)]SW[NMeA][NMeA]ACG-NH2; thioether N-14)
6 | 1 to 9.9 nM | CCCC[C@H]1C(=O)N(C)[C@@H](C)C(=O)N[C@@H](CCCNC(=N)N)C(=O)NC(C(=O)NCC(N)=O)CSCC(=O)N[C@@H](Cc2ccc(O)cc2)C(=O)N(C)[C@@H](C)C(=O)N[C@@H](CC(N)=O)C(=O)N2CCC[C@H]2C(=O)N[C@@H](CC(N)=O)C(=O)N[C@@H](CC(C)C)C(=O)N2C[C@H](O)C[C@H]2C(=O)N[C@@H](Cc2c[nH]c3ccccc23)C(=O)N[C@@H](CO)C(=O)N[C@@H](Cc2c[nH]c3ccccc23)C(=O)N1C (stereo partly drawn) [Example 9138] ({CH2CO}-Y[NMeA]NPNL[Hyp]WSW[NMeNle][NMeA]R[ξC]G-NH2; thioether N-14)
